According to patent US20220118070A1, “CANCER THERAPY BY MODIFYING NEOANTIGEN EXPRESSION” (priority 2019, published 2022):
Entries after “also recorded” stand apart in the source; their conditions may differ.

Legend:
[1] = test system: interaction of snRNA with E2F1; assay: Anti-E2F1 RNA immunoprecipitation (RIP), co-immunoprecipitating snRNA by qRT-PCR; assay type: cell-based; details: 5 μM PRMT5 inhibitor; U2OS, HCT116 and MCF7 cells; FIGS. 3B, E and F
Procedure: B) U2OS cells were treated with 5 μM PRMT5 inhibitor (P5 inh) as indicated, prior to performing an anti-E2F1 RIP. Co-immunoprecipitating U6 (i) and U4 (ii) snRNAs were identified with specific primers by qRT-PCR. Input protein levels were determined by immunoblot (iii). n=3
E) HCT116 cells were treated with 5 μM PRMT5 inhibitor (P5 inh) where indicated, prior to performing an anti-E2F1 RIP. Co-immunoprecipitated U1 (i) and U6 (ii) snRNA were detected by qRT-PCR.
F) As above, though the experiment was performed in MCF7 cells.
A) U2OS cells (i) and HCT116 cells (ii) were transfected for 96 h with 25 nM non-targeting (siNT) or p100/TSN specific siRNA, prior to lysis in RIP buffer. Cell extracts were immunoprecipitated with E2F1 antibody and co-immunoprecipitating RNA was reverse transcribed prior to QPCR analysis with primers against U5 (i) and U6 (ii) snRNAs as indicated. Input protein levels were determined by immunoblot.
RNA was isolated from cells using TRIzol (Thermo Fisher) according to the manufacturer's instructions. 1 μg of total RNA was used for cDNA synthesis. For standard mRNA analysis oligo(d)T20 (Invitrogen) was added. […] Results were expressed as average (mean) fold change compared to control treatments using the ΔΔCt method from three biological repeat samples. […]

[2] = test system: interaction between E2F1 and SENP7 V5 RNA; assay: Anti-E2F1 RIP, co-immunoprecipitating SENP7 V5 transcripts by qRT-PCR; assay type: cell-based; details: 5 μM; HCT116 cells; FIG. 4C
Procedure: C) HCT116 cells were treated with 5 μM PRMT5 inhibitor (P5 inh) where indicated prior to performing an anti-E2F1 RIP. Co-immunoprecipitating SENP7 V5 transcripts were analysed by qRT-PCR.
RNA was isolated from cells using TRIzol (Thermo Fisher) according to the manufacturer's instructions. 1 μg of total RNA was used for cDNA synthesis. For standard mRNA analysis oligo(d)T20 (Invitrogen) was added. For splice variant analysis, RNA was DNAse treated (Sigma-Aldrich) prior to cDNA synthesis using random hexamers (Invitrogen). M-MLV reverse transcriptase (Promega) was used as per the manufacturer's instructions. qRT-PCR was carried out in triplicate using the indicated primer pairs and Brilliant III SYBR Green QPCR Master Mix (Stratagene) on an MX3005P (Agilent) QPCR instrument. Results were expressed as average (mean) fold change compared to control treatments using the ΔΔCt method from three biological repeat samples. GAPDH or actin primer sets were used as an internal calibrator. Error bars represent standard error unless otherwise indicated.
Cells were washed once with PBS before UV cross-linking at 900 mJ/cm^2 using a Stratalinker (Stratagene). RIP lysis buffer (50 mM Tris-HCl pH 8.0, 150 mM NaCl, 1 mM MgCl2, 10% glycerol [v/v], 1% NP-40 [v/v], 1 mM DTT, 0.2 mM sodium orthovanadate and protease inhibitor cocktails) was added directly to the plate, on ice. […]

SENP7 RNA variants = assay: qRT-PCR of SENP7 transcript variants in treated cells; assay type: cell-based; details: 5 μM, 72 h; U2OS and HCT116 cells; FIGS. 4D and 4E
Procedure: D) U2OS cells were treated for 72 h with 5 μM PRMT5 inhibitor (P5 inh). RNA was then isolated from cells and analysed by qRT-PCR using primers targeting specific SENP7 transcript variants or total SENP7 RNA. […] E) As above, though the experiment was performed in HCT116 cells. n=4 RNA was isolated from cells using TRIzol (Thermo Fisher) according to the manufacturer's instructions. 1 μg of total RNA was used for cDNA synthesis. For standard mRNA analysis oligo(d)T20 (Invitrogen) was added. For splice variant analysis, RNA was DNAse treated (Sigma-Aldrich) prior to cDNA synthesis using random hexamers (Invitrogen). M-MLV reverse transcriptase (Promega) was used as per the manufacturer's instructions. qRT-PCR was carried out in triplicate using the indicated primer pairs and Brilliant III SYBR Green QPCR Master Mix (Stratagene) on an MX3005P (Agilent) QPCR instrument. Results were expressed as average (mean) fold change compared to control treatments using the ΔΔCt method from three biological repeat samples. GAPDH or actin primer sets were used as an internal calibrator. Error bars represent standard error unless otherwise indicated.

[3] = test system: chromatin-associated SUMOylation on the p73 promoter; assay: ChIP with anti-SUMO2/3 antibody on the p73 promoter; assay type: cell-based; details: 5 μM, 72 h; U2OS cells; FIG. 6A
Procedure: A) U2OS cells were treated with 5 μM PRMT5 inhibitor (P5 inh) for 72 h where indicated, prior to ChIP analysis with anti-SUMO2/3 specific or control antibodies. Immunoprecipitated chromatin was analysed using primers specific for the E2F site in the p73 promoter (i). An RT-PCR was also performed to monitor the levels of p73 transcripts in the cell (ii). […] See also FIGS. 10F and 10G. ChIP was performed as described previously [(29) or (30)]. Antibodies used for immunoprecipitation were as follows: anti-E2F1 (C-20), anti-HA (16B12), anti-HP1α (NB110-40623, Novus Biologicals; RRID: AB_714949), anti-SUMO2/3 (8A2; Abcam; RRID: AB_1658424), non-specific rabbit or mouse IgG. The recovered DNA was analysed in triplicate by real-time QPCR as described (30, 31) on a MX3005P QPCR system using Brilliant III SYBR Green QPCR Master Mix according to the manufacturer's instructions. Results were expressed as average (mean) fold change compared to IgG control treatments using the ΔΔCt method from triplicate biological repeat samples. Alternatively, a standard curve was generated to calculate ChIP/input signals that were subsequently used to generate fold change values compared to IgG control. Error bars represent standard error unless otherwise indicated.

p73 transcripts = assay: RT-PCR of p73 transcripts in treated cells; assay type: cell-based; details: 5 μM; U2OS and HCT116 cells; FIG. 6A, FIGS. 10F and G
Procedure: A) U2OS cells were treated with 5 μM PRMT5 inhibitor (P5 inh) for 72 h where indicated, prior to ChIP analysis with anti-SUMO2/3 specific or control antibodies. Immunoprecipitated chromatin was analysed using primers specific for the E2F site in the p73 promoter (i). An RT-PCR was also performed to monitor the levels of p73 transcripts in the cell (ii). […] See also FIGS. 10F and 10G. F) U2OS cells were treated with 5 μM PRMT5 inhibitor (P5 inh) as indicated, prior to RNA extraction and qRT-PCR analysis with primers recognising total p73 or CDC6 transcripts as indicated (i). […] 1 μg of total RNA was used for cDNA synthesis. For standard mRNA analysis oligo(d)T20 (Invitrogen) was added. For splice variant analysis, RNA was DNAse treated (Sigma-Aldrich) prior to cDNA synthesis using random hexamers (Invitrogen). M-MLV reverse transcriptase (Promega) was used as per the manufacturer's instructions. qRT-PCR was carried out in triplicate using the indicated primer pairs and Brilliant III SYBR Green QPCR Master Mix (Stratagene) on an MX3005P (Agilent) QPCR instrument. Results were expressed as average (mean) fold change compared to control treatments using the ΔΔCt method from three biological repeat samples. GAPDH or actin primer sets were used as an internal calibrator. Error bars represent standard error unless otherwise indicated.

[4] = test system: chromatin-associated HP1a; assay: ChIP with anti-HP1a antibody on the p73 promoter; assay type: cell-based; details: PRMT5 inhibitor 24 h or 48 h; U2OS cells; FIG. 6B
Procedure: B) As above, though cells were treated with the PRMT5 inhibitor (P5 inh) for 24 h or 48 h as indicated. ChIP analysis was performed with anti-HP1a specific or control antibodies (i).
C) U2OS cells were transfected with SENP7 siRNA or non-targeting siRNA (siNT) for 96 h as indicated. Cells were then prepared for ChIP analysis as above (i).
ChIP was performed as described previously [(29) or (30)]. Antibodies used for immunoprecipitation were as follows: anti-E2F1 (C-20), anti-HA (16B12), anti-HP1α (NB110-40623, Novus Biologicals; RRID: AB_714949), anti-SUMO2/3 (8A2; Abcam; RRID: AB_1658424), non-specific rabbit or mouse IgG. The recovered DNA was analysed in triplicate by real-time QPCR as described (30, 31) on a MX3005P QPCR system using Brilliant III SYBR Green QPCR Master Mix according to the manufacturer's instructions. Results were expressed as average (mean) fold change compared to IgG control treatments using the ΔΔCt method from triplicate biological repeat samples. Alternatively, a standard curve was generated to calculate ChIP/input signals that were subsequently used to generate fold change values compared to IgG control. Error bars represent standard error unless otherwise indicated.

PRMT5 = PRMT5 (Homo sapiens, UniProt O14744); details: cited from earlier work
Mantle Cell Lymphoma = details: in vitro and in vivo models of Mantle Cell Lymphoma; cited from earlier work

Chain of PRMT5 (O14744 whole entry): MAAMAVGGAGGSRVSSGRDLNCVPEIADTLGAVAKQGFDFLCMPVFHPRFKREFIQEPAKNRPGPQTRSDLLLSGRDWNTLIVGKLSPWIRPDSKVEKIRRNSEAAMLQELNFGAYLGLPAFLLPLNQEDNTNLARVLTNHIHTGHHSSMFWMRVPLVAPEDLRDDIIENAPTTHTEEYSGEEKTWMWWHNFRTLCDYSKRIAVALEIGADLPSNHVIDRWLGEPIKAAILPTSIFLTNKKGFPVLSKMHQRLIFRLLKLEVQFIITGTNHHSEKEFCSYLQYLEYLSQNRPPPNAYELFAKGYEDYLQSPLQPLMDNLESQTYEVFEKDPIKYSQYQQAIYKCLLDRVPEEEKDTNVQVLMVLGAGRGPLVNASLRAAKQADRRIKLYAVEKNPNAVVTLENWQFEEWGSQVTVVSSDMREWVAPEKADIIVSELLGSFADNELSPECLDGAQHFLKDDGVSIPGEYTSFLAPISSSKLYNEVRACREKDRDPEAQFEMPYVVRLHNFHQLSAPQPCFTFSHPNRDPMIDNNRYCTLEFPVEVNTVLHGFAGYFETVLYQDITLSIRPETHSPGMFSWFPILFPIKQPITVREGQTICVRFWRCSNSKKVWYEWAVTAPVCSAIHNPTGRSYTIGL
Chain of PRMT5 (Q9BQA1 whole entry partner): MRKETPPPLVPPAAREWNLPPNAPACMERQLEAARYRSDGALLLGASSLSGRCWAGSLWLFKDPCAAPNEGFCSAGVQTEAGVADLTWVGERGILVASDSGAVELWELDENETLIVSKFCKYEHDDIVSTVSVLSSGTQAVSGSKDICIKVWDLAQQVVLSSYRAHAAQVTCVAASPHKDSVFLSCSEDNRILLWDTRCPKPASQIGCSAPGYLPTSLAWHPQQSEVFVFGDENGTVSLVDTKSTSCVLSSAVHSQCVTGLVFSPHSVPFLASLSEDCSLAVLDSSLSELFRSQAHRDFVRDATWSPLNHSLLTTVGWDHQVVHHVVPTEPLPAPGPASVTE

## O=C(NC[C@H](O)CN1CCc2ccccc2C1)c1cc(NC2COC2)ncn1 [EPZ015666]
[1]
  interaction of snRNA with E2F1: absent
[2]
  interaction between E2F1 and V5 RNA: reduced
SENP7 RNA variants
  level of the SENP7 V5 RNA variant: lower level; also recorded: down-regulates
  level of the other SENP7 RNA variants: increased
[3]
  chromatin-associated SUMOylation on the p73 promoter: increase
p73 transcripts
  levels of transcription (p73): reduced levels
[4]
  association of HP1a with chromatin (p73 promoter): increased association
PRMT5
  inhibition of PRMT5: potent and selective inhibitor
Mantle Cell Lymphoma
  antiproliferative effects: antiproliferative effects
